Laboratory results as given in patent publication US4616007A, “Heterocyclthio compounds, process for their manufacture, pharmaceutical preparations that contain these compounds, and the use of the latter” (Ciba-Geigy Corporation, priority 1982, dated 1986).

Experiments:
[1] = system: Staphylococcus aureus 10 B; assay: in vitro antibacterial activity (MIC); format: cell-based
[2] = system: Staphylococcus aureus 2999i+p+; assay: in vitro antibacterial activity (MIC); format: cell-based
Escherichia coli DC 2 = assay: in vitro antibacterial activity (MIC); format: cell-based; details: DC2
From the text: (§1) The compounds of the formula I have valuable pharmacological properties, or can be used as intermediates for the manufacture of such compounds having valuable pharmacological properties. Compounds of the formula I in which R1 represents hydrogen or methyl, R2 represents hydroxy, R3 represents carboxy, or an esterified carboxy group that can be cleaved under physiological conditions, and R4 has the meaning given under formula I, and pharmacologically acceptable salts of such compounds having salt-forming groups have anti-bacterial activity. For example, they are effective in vitro against gram-positive and gram-negative cocci, for example Staphylococcus aureus, Streptococcus pyogenes, Streptococcus pneumoniae, and Streptococcus faecalis, and against gram-negative rod-shaped bacilli, such as Enterobacteriaceae, Haemophilus influenzae and Pseudomonas aeruginosa, and anaerobes, for example Bacteroides sp., in minimum concentrations of from approximately 0.02 to approximately 64 μg/ml. In vivo, in the case of systemic infection of mice, for example by Staphylococcus aureus or Streptococcus pyogenes, on subcutaneous or oral administration of compounds of the invention ED50 values of from approximately 8.5 to approximately 100 mg/kg result.
(§2) For example, in vitro, sodium (5R,6S)-2-[3-(1-methyltetrazol-5-ylthio)-propyl]-6-hydroxymethyl-2-penem-3-carboxylate (compound 1) and sodium (5R,6S)-2-[3-(1-dimethylaminoethyltetrazol-5-ylthio)-propyl]-6-hydroxymethyl-2-penem-3-carboxylate (compound 2) and sodium (5R,6S)-2-[3-(1-methyltetrazol-5-ylthio)-ethyl-6-hydroxymethyl-2-penem-3-carboxylate (compound 3), have the following activity: […]

Escherichia coli UB 1005 = assay: in vitro antibacterial activity (MIC); format: cell-based; details: UB1005
From the text: as §1, §2

[3] = system: Streptococcus pyogenes Aronson; assay: in vitro antibacterial activity (MIC); format: cell-based
[4] = system: Streptococcus pneumoniae III/84; assay: in vitro antibacterial activity (MIC); format: cell-based
[5] = system: Streptococcus faecalis D 3; assay: in vitro antibacterial activity (MIC); format: cell-based; details: Enterococcus faecalis, D3
[6] = system: Haemophilus influenzae NCTC 4560; assay: in vitro antibacterial activity (MIC); format: cell-based; details: NCTC4560
Escherichia coli 205 = assay: in vitro antibacterial activity (MIC); format: cell-based
[7] = system: Escherichia coli 205 R+TEM; assay: in vitro antibacterial activity (MIC); format: cell-based
Escherichia coli 16 = assay: in vitro antibacterial activity (MIC); format: cell-based
[8] = system: Klebsiella pneumoniae 327; assay: in vitro antibacterial activity (MIC); format: cell-based
Serratia marcescens 344 = assay: in vitro antibacterial activity (MIC); format: cell-based
[9] = system: Enterobacter cloacae P 99; assay: in vitro antibacterial activity (MIC); format: cell-based; details: P99
[10] = system: Enterobacter cloacae ATCC 13047; assay: in vitro antibacterial activity (MIC); format: cell-based; details: ATCC13047
Proteus mirabilis 774 = assay: in vitro antibacterial activity (MIC); format: cell-based
Proteus mirabilis 1219 = assay: in vitro antibacterial activity (MIC); format: cell-based
Proteus rettgeri 856 = assay: in vitro antibacterial activity (MIC); format: cell-based; details: Providencia rettgeri
Proteus morganii 2359 = assay: in vitro antibacterial activity (MIC); format: cell-based; details: Morganella morganii
Proteus morganii 1518 = assay: in vitro antibacterial activity (MIC); format: cell-based; details: Morganella morganii
[11] = system: Pseudomonas aeruginosa ATCC 12055; assay: in vitro antibacterial activity (MIC); format: cell-based; details: ATCC12055
[12] = system: Pseudomonas aeruginosa K 799/61; assay: in vitro antibacterial activity (MIC); format: cell-based; details: K799/61
[13] = system: Clostridium perfringens 194; assay: microbe, parasite or virus in culture; format: cell-based
[14] = system: Bacteroides fragilis L 01; assay: in vitro antibacterial activity (MIC); format: cell-based; details: L01
Escherichia coli 2018 [15] = assay: in vivo systemic infection of mice
From the text: as §1
(§3) In vivo in the systemic infection of mice, the following activity is found: […]

[16] = system: Staphylococcus aureus 10 B; assay: in vivo systemic infection of mice
From the text: as §1, §3

[17] = system: Streptococcus pyogenes Aronson; assay: in vivo systemic infection of mice
From the text: as §1, §3

Escherichia coli 2018 [18] = assay: in vitro antibacterial activity (MIC); format: cell-based
From the text: as §1, §2

Escherichia coli B-1385 = assay: in vitro antibacterial activity (MIC); format: cell-based; details: B1385
From the text: as §1, §2

[19] = system: Staphylococcus aureus A 124; assay: in vitro antibacterial activity (MIC); format: cell-based; details: A124
From the text: as §1, §2

[20] = system: Staphylococcus aureus Wood 46; assay: in vitro antibacterial activity (MIC); format: cell-based; details: WOOD46
From the text: as §1, §2

[21] = system: Neisseria meningitidis 1316; assay: in vitro antibacterial activity (MIC); format: cell-based
[22] = system: Neisseria gonorrhoeae 1317-4; assay: in vitro antibacterial activity (MIC); format: cell-based; details: 13174

Compound | MIC [1] [µg/mL] | MIC [2] [µg/mL] | MIC (Escherichia coli DC 2) [µg/mL] | MIC (Escherichia coli UB 1005) [µg/mL] | MIC [3] [µg/mL] | MIC [4] [µg/mL] | MIC [5] [µg/mL] | MIC [6] [µg/mL] | MIC (Escherichia coli 205) [µg/mL] | MIC [7] [µg/mL] | MIC (Escherichia coli 16) [µg/mL] | MIC [8] [µg/mL] | MIC (Serratia marcescens 344) [µg/mL] | MIC [9] [µg/mL] | MIC [10] [µg/mL] | MIC (Proteus mirabilis 774) [µg/mL] | MIC (Proteus mirabilis 1219) [µg/mL] | MIC (Proteus rettgeri 856) [µg/mL] | MIC (Proteus morganii 2359) [µg/mL] | MIC (Proteus morganii 1518) [µg/mL] | also measured
Cn1nnnc1SCCCC1=C(C(=O)[O-])N2C(=O)[C@H](CO)[C@H]2S1.[Na+] [Compound 1, sodium (5R,6S)-2-[3-(1-methyltetrazol-5-ylthio)-propyl]-6-hydroxymethyl-2-penem-3-carboxylate] | 0.05 | 0.05 | 2 | 4 | 0.1 | 0.02 | 64 | 0.5 | 2 | 4 | 16 | 4 | 16 | 32 | 64 | 2 | 8 | 4 | 2 | 4 | MIC [11]: > 128 µg/mL; MIC [12]: 2 µg/mL; MIC [13]: 0.02 µg/mL; MIC [14]: 0.5 µg/mL; ED50 (Escherichia coli 2018 [15]; Escherichia coli, 2018, po, p.o.): 90 mg/kg; ED50 (Escherichia coli 2018 [15]; Escherichia coli, 2018, sc, s.c.): 30 to 100 mg/kg; ED50 ([16]; po): 90 mg/kg; ED50 ([16]; sc): 60 mg/kg; ED50 ([17]; po): ~30 mg/kg; ED50 ([17]; sc): 8.5 mg/kg
Cn1nnnc1SCCC1=C(C(=O)[O-])N2C(=O)[C@H](CO)[C@H]2S1.[Na+] [Compound 3, Sodium (5R,6S)-2-[2-(1-Methyltetrazol-5-ylthio)-ethyl]-6-hydroxymethyl-2-penem-3-carboxylate] | 0.05 | 0.05 | 2 | 2 | 0.1 | 0.02 | 32 | 2 | 1 | 2 | 4 | 2 | 16 | 16 | 32 | 2 | 4 | 4 | 2 | 4 | MIC (Escherichia coli 2018 [18]): 0.5 µg/mL; MIC (Escherichia coli B-1385): 2 µg/mL; MIC [19]: 0.5 µg/mL; MIC [20]: 0.05 µg/mL; MIC [21]: 0.02 µg/mL; MIC [22]: 0.01 µg/mL; MIC [11]: > 128 µg/mL; MIC [12]: 1 µg/mL; MIC [13]: 0.1 µg/mL; MIC [14]: 0.2 µg/mL; ED50 ([17]; po): 30 mg/kg; ED50 ([17]; sc): 12 mg/kg
